Data taken from patent publication US7470715B2, “Estrogen modulators” (Pfizer Inc., priority 2005, dated 2008).

Tests used:
[1] = target: ligand binding domain of the estrogen receptor beta chain (ERβLBD) that contained a point mutation at amino acid residue 418 (pm418) (Homo sapiens, UniProt Q92731); assay: ER agonist cell assay (ERβ), Huh-7 co-transfection, luciferase; type: cell-based; settings: for EC50: Huh-7 cells co-transfected with pG5luc and ERβLBD(pm418), overnight incubation, luciferase; for ERβ % of Max E2 Response: percent of the maximum estradiol fold change, Huh-7, pG5luc and ERβLBD(pm418)
Method: (§1) The compounds ability to mimic the effects of estrogen on the estrogen receptor were determined in a whole cell assay as described immediately below.
(§2) Experimental Procedure for ER Agonist Cell Assay
(§3) • Cell line and plasmids: The human hepatoma cell line Huh-7 was used for co-transfections. Cells were maintained in culture medium and split when they reached 80-90% confluency. Three plasmids were routinely used in the assay. pG5luc contained the firefly luciferase gene and was obtained from Promega. […] Cell Culture Media and Reagents:
(§4) Culture medium: DMEM (phenol red free), 10% charcoal treated HyClone serum, 1% L-glutamine, and 1% penicillin/streptomycin
(§5) Transfection medium: DMEM (phenol red free) and 10% charcoal treated HyClone serum
(§6) Luciferase reagents: Dual-Glo Luciferase Kit (Promega cat #E2980) was used for determination of luciferase activity.
(§7) Transient transfections were preformed using the lipophilic reagent FuGENE 6 (Roche). Cells were split and seeded at 7.2×10^6/150 cm^2 flask in 20 mL of transfection medium. 5-6 hrs later cells were co-transfected with either pG5luc and ERαLBD or pG5luc and ERβLBD(pm418). Transfected cells grew overnight and were then used the next day.
(§8) Cells transfected 24 hrs earlier were harvested, counted, and seeded in wells containing compound at a density of 1×10^4 cells/well. […] Cells were incubated overnight at 37° C. and 5% CO2 in the presence of compound. The following day medium was aspirated from the wells and 100 ul of Dual-Glo™ Luciferase Reagent were added to each well. Plates were incubated at room temperature for 20 minutes and firefly luminescence was measured on a luminometer. Next, 50 ul of Dual-Gbo™ Stop & Glo® Reagent were added to each well and after 20 minutes at room temperature the Renilla luminescence was measured on a luminometer. Values from each well were normalized by dividing the firefly luminescence by the Renilla luminescence. Estradiol was used as the standard and run in each assay. The fold induction over background for each compound was compared to the maximum fold induction for estradiol in each assay. […] Those compounds that were not tested, or the data was unavailable are marked as NT.

[2] = target: T1, ligand binding domain of the estrogen receptor alpha chain (ERαLBD) (Homo sapiens, UniProt P03372); assay: ER agonist cell assay (ERα), Huh-7 co-transfection, luciferase; type: cell-based; settings: for EC50: Huh-7 cells co-transfected with pG5luc and ERαLBD, overnight incubation, luciferase; for ERα % of Max E2 Response: percent of the maximum estradiol fold change, Huh-7, pG5luc and ERαLBD
T1 construct: expressed in transfected cells; host or cells: Huh-7 human hepatoma cells, transient transfection with FuGENE 6
T1 sequence (P03372 311-547 limits assumed): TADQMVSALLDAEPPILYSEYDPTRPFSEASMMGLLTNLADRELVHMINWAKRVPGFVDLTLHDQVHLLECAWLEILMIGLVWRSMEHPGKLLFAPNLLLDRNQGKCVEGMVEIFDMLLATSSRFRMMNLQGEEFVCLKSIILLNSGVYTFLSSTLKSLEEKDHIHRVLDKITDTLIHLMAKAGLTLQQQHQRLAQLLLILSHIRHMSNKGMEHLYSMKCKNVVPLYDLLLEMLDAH
Method: as §1, §2, §3, §4, §5, §6, §7, §8

[3] = system: hairless female SKH, 1-hr mice; assay: Animal model for reversal of wrinkles: skin thickness model, topical dosing, skin thickness and hyaluronic acid; type: in vivo, mouse; settings: QD, three days
Description: Animal Model for Reversal of Wrinkles
Uzuka et al. describes an increase in mouse back skin water content, hyaluronic acid (HA) content, and hyaluronic acid synthetase activity following topical application or subcutaneous injection of estradiol (Biochimica et Biophysica Acta, 627, 199-206, 1980; Biochimica et Biophysica Acta 673, 387-393, 1981). […] Thus, this model may be used to as a preliminary screen to assess the potential for estrogen modulators to alleviate wrinkles in human skin.
The skin thickness model uses hairless female SKH, 1-hr mice. Mice aged to approximately 11 weeks are introduced into the laboratory environment and acclimated for at least 1 week prior to use in the study may be used. Each group typically consisted of 7 animals that may be run in parallel with vehicle and the positive control estradiol. Based on binding and/or cellular assay data, compounds are chosen for screening in this model. Those compounds include the products of Examples, 2, 9, 15, 46, 47, 48, 51, 52, 61, 135, and 137. Prior to topical application to mouse dorsal skin, a sufficient quantity of each compound is dissolved in a solvent generally consisting of ethanol and propylene glycol (70/30% v/v) (vehicle) to achieve the final concentration specified in Table C below. Animals are dosed topically QD or BID, for three days. Each dose consisted of 100 microliters of vehicle or drug applied uniformly to the entire dorsal surface (˜18 cm^2). All animals are sacrificed approximately 18-24 hours after the final dose. Skin thickness (ST) is measured using a caliper. HA is extracted from the skin and quantitated using commercially-available enzyme-linked immunosorbent assays (ELISAs)(HA).
Data are presented as percent of the estradiol response after subtracting out the ST for vehicle-treated mouse skin. The estradiol response is set to 100% and the vehicle resoibse becines 0%.

Molecule | EC50 [1] [nM] | ERβ % of Max E2 Response [1] [%] | EC50 [2] [nM] | ERα % of Max E2 Response [2] [%] | HA (hyaluronic acid), percent of the estradiol response ([3]; 1% topical) [%] | ST (skin thickness), percent of the estradiol response ([3]; 1% topical) [%] | HA (hyaluronic acid), percent of the estradiol response ([3]; 3% topical) [%] | ST (skin thickness), percent of the estradiol response ([3]; 3% topical) [%]
CCCC(O)C1(c2onc(-c3ccc(O)cc3)c2-c2ccccc2)CC1 (racemic) [Example 15, (±)-4-{5-[1-(1-Hydroxy-butyl)-cyclopropyl]-4-phenyl-isoxazol-3-yl}-phenol] | 150 | 15.6 | 24.3 | 43.8 | – | – | 47 | 41
1-[3-(4-Hydroxy-phenyl)-4-phenyl-isoxazol-5-yl]-cyclopropanecarboxylic acid isopropyl ester [Example 61] | > 10000 | >1.83 | 75 | 21.1 | – | – | 38 | 32
COc1ccc(-c2nnc(C3(c4onc(-c5ccc(O)cc5)c4-c4ccccc4)CC3)o2)cc1 [Example 129, 4-(5-{1-[5-(4-methoxyphenyl)-1,3,4-oxadiazol-2-yl]cyclopropyl}-4-phenylisoxazol-3-yl)phenol] | > 10000 | 0.625 | ≥ 10000 | 19.1 | – | – | – | –
CCOc1ccc(-c2nnc(C3(c4onc(-c5ccc(O)cc5)c4-c4ccccc4)CC3)o2)cc1 [Example 119, 4-(5-{1-[5-(4-ethoxyphenyl)-1,3,4-oxadiazol-2-yl]cyclopropyl}-4-phenylisoxazol-3-yl)phenol] | > 10000 | >3.74 | 469 | 22.3 | – | – | – | –
OCC1(c2onc(-c3ccc(O)c(F)c3)c2-c2ccccc2)CC1 [Example 98, 2-Fluoro-4-[5-(1-hydroxymethyl-cyclopropyl)-4-phenyl-isoxazol-3-yl]-phenol] | 799 | 36.8 | 985 | 46 | – | – | – | –
Oc1ccc(-c2noc(C3(c4nnc(-c5ccccc5O)o4)CC3)c2-c2ccccc2)cc1 [Example 122, 2-(5-{1-[3-(4-hydroxyphenyl)-4-phenylisoxazol-5-yl]cyclopropyl}-1,3,4-oxadiazol-2-yl)phenol] | > 10000 | >0.756 | 71.5 | 21.9 | – | – | – | –
Oc1ccc(-c2noc(C3(CSc4ccccc4)CC3)c2-c2ccccc2)cc1 [Example 40, 4-[4-Phenyl-5-(1-phenylsulfanylmethyl-cyclopropyl)-isoxazol-3-yl]-phenol] | 139 | 1.12 | 107 | 39.5 | – | – | – | –
COc1cccc(F)c1OCC1(c2onc(-c3ccc(O)cc3)c2-c2ccccc2)CC1 [Example 7, 4-{5-[1-(2-Fluoro-6-methoxy-phenoxymethyl)-cyclopropyl]-4-phenyl-isoxazol-3-yl}-phenol] | > 10000 | >0.485 | 208 | 17.2 | – | – | – | –
CC(C)C(O)C1(c2onc(-c3ccc(O)cc3)c2-c2ccccc2)CC1 (racemic) [Example 17, (±)-4-{5-[1-(1-Hydroxy-2-methyl-propyl)-cyclopropyl]-4-phenyl-isoxazol-3-yl}-phenol] | 126 | 3.82 | 34.4 | 56.8 | – | – | – | –

The next lines start with results.

EC50 [1] [nM] | ERβ % of Max E2 Response [1] [%] | EC50 [2] [nM] | ERα % of Max E2 Response [2] [%] | Molecule | HA (hyaluronic acid), percent of the estradiol response ([3]; 1% topical) [%] | ST (skin thickness), percent of the estradiol response ([3]; 1% topical) [%] | HA (hyaluronic acid), percent of the estradiol response ([3]; 3% topical) [%] | ST (skin thickness), percent of the estradiol response ([3]; 3% topical) [%]
84.2 | 75.2 | 152 | 63.8 | O=C(OCC1(c2onc(-c3ccc(O)cc3)c2-c2ccccc2)CC1)C1CC1 [Example 51] | 35 | 19 | – | –
117 | 121 | 138 | 66 | CC(C)C(=O)OCC1(c2onc(-c3ccc(O)cc3)c2-c2ccccc2)CC1 [Example 52] | – | – | 34 | 21
41.3 | 2.63 | 177 | 40.2 | CCCOCC1(c2onc(-c3ccc(O)cc3)c2-c2ccccc2)CC1 [Example 9, 4-[4-Phenyl-5-(1-propoxymethyl-cyclopropyl)-isoxazol-3-yl]-phenol] | – | – | 58 | 49
– | 0.577 | 354 | 26.2 | Cc1ncccc1OCC1(c2onc(-c3ccc(O)cc3)c2-c2ccccc2)CC1 [Example 12, 4-{5-[1-(2-Methyl-pyridin-3-yloxymethyl)-cyclopropyl]-4-phenyl-isoxazol-3-yl}-phenol] | – | – | – | –
136 | 17.7 | 43 | 45.4 | Oc1ccc(-c2noc(C3(C(O)C4CC4)CC3)c2-c2ccccc2)cc1 (racemic) [Example 14, (±)-4-{5-[1-(Cyclopropyl-hydroxy-methyl)-cyclopropyl]-4-phenyl-isoxazol-3-yl}-phenol] | – | – | – | –
68.8 | 3.65 | 25.8 | 40.4 | COCC1(c2onc(-c3ccc(O)cc3)c2-c2ccccc2)CC1 [Example 8, 4-[5-(1-Methoxymethyl-cyclopropyl)-4-phenyl-isoxazol-3-yl]-phenol] | – | – | – | –
302 | 4.3 | 202 | 30.7 | CC(=O)SCC1(c2onc(-c3ccc(O)cc3)c2-c2ccccc2)CC1 [Example 37, Thioacetic acid S-{1-[3-(4-hydroxy-phenyl)-4-phenyl-isoxazol-5-yl]-cyclopropylmethyl} ester] | – | – | – | –
568 | 1.32 | 97.1 | 32.2 | CC(C)OCC1(c2onc(-c3ccc(O)cc3)c2-c2ccccc2)CC1 [Example 3, 4-[5-(1-Isopropoxymethyl-cyclopropyl)-4-phenyl-isoxazol-3-yl]-phenol] | – | – | – | –
97.9 | 92 | 137 | 59.9 | CCCC(=O)OCC1(c2onc(-c3ccc(O)cc3)c2-c2ccccc2)CC1 [Example 58] | – | – | – | –
> 10000 | >0.728 | 13.6 | 21.5 | O=C(OCC1CCC1)C1(c2onc(-c3ccc(O)cc3)c2-c2ccccc2)CC1 [Example 95, 1-[3-(4-Hydroxy-phenyl)-4-phenyl-isoxazol-5-yl]-cyclopropanecarboxylic acid cyclobutylmethyl ester] | – | – | – | –
> 10000 | >2.93 | 30.5 | 26 | O=C(OC1CCCC1)C1(c2onc(-c3ccc(O)cc3)c2-c2ccccc2)CC1 [Example 89, 1-[3-(4-Hydroxy-phenyl)-4-phenyl-isoxazol-5-yl]-cyclopropanecarboxylic acid cyclopentyl ester] | – | – | – | –
